Assay results: patent publication US10314813B2, “Antimicrobial compositions for Clostridium difficile” (University of Central Florida Research Foundation, Inc., priority 2017, dated 2019)

Experiments:
[1] = system: Clostridium difficile 630; assay: MIC broth dilution per CLSI M11-A8, modified Brucella broth; format: cell-based; settings: strain 630; Brucella broth mix + yeast, no blood/hemin; n = 12
Protocol: (§1) MIC experiments for Puupehenone were carried out in accordance with CLSI M11-A8 for broth dilutions. The levels of antimicrobial were achieved via serial dilution and listed as follows; 32 ug/mL, 16 ug/mL. 8 ug/mL, 4 ug/mL, 2 ug/mL, 1 ug/mL, 0.5 ug/mL, 0.25 ug/mL, 0.125 ug/mL, 0.0625 ug/mL/. Metranidazole was used a positive control. The only deviation from the CLSI was a modification to the media. […] This was noted due to comparisons with previous BHIS experiments. Thus, the media was modified to resemble the BHIS media, with only Brucella broth mix (28 g/L) and yeast (5 g/L). The reason for the decreased efficacy of the drug when in blood based media is still being investigated. The MICs against different C. difficile strains (ATCC9689, NAP1027, and 630 were determined for both Puupehone and Matranidazole See Table 1.

[2] = system: Clostridium difficile ATCC 9689; assay: as above; format: cell-based; settings: strain ATCC 9689; Brucella broth mix + yeast, no blood/hemin; n = 12
Protocol: as §1

[3] = system: Clostridium difficile NAP1027; assay: as above; format: cell-based; settings: strain NAP1027; Brucella broth mix + yeast, no blood/hemin; n = 12
Protocol: as §1

[4] = system: C. difficile strain VPI 10463 or strain ATCC 9689; assay: 96-well growth inhibition test in BHIS media, optical density readout; format: cell-based, Clostridium difficile; settings: puupehenone in MeOH, 40 μL-well, Trial 1 (0 μL-well 0.0816)
Protocol: Tests were performed in a Coy anaerobic chamber (Coy Labs Grass Lake, Mich.). The compound Puupehenone was dissolved in either methanol or DMSO for testing. Using a 96-well plate, 200 μL of BHIS media was added to 12 wells. One was the control (BHIS media alone). The sequential nine wells have increments of 5 μL of puupehenone. The remaining two wells have no puupehenone but one has 20 μL and another has 40 μL of methanol. These last wells are a separate test to determine if methanol influences the growth of C. difficile. Then 10 μL of C. difficile strain VPI 10463 or strain ATCC 9689 was added to each well except for the control. Trials with DMSO were performed in increments of 2 μL of puupehenone. Effects of puupehenone on C. difficile were tested based on optical density (e.g. OD500 nm, OD600 nm or OD630 nm, inter alia) using an optical reader as is standard in the art. Results

| Compound | MIC [1] | MIC [2] | MIC [3] | optical density (growth of C. difficile) [4] |
| --- | --- | --- | --- | --- |
| Cc1ncc([N+](=O)[O-])n1CCO [Metranidazole, reference compound] | 0.5 µg/mL | 0.25 µg/mL | 0.25 µg/mL |  |
| CC1(C)CCC[C@]2(C)[C@H]3C=C4C=C(O)C(=O)C=C4O[C@@]3(C)CC[C@@H]12 [Puupehenone, puupehenone] | 8 µg/mL | 4 µg/mL | 8 µg/mL | 0.0742 |
